Laboratory results published in ChEMBL document CHEMBL6134906, “Design, Synthesis, and Biological Evaluation of Selective STING Synergists That Enhance cGAMP-STING Pathway Activation without Inherent Agonist Activity” (J Med Chem, 2025).

Columns and labels:
THP-1 = assay: Cytotoxicity against human THP-1 cells assessed as cell viability at 100 uM incubated for 48 hrs by CellTiter Glo luminescent cell viability assay relative to control; settings: THP-1, 48 h, read-out: Activity
[1] = target: Stimulator of interferon genes protein (Homo sapiens, UniProt Q86WV6)
Stimulator of interferon genes protein, sequence (Q86WV6 whole entry): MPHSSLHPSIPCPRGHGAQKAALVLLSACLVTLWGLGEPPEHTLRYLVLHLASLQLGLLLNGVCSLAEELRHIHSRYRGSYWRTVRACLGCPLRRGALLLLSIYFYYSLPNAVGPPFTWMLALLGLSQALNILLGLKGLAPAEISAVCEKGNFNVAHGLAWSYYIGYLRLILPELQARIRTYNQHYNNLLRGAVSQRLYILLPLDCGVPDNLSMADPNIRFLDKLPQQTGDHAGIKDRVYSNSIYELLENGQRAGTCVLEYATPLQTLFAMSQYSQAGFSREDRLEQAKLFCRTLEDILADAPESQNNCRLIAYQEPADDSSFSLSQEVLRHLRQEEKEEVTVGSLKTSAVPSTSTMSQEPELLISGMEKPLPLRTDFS

| Compound | IC50 [1] | viability at 100 µM (THP-1) |
| --- | --- | --- |
| Cc1ccc2c(=O)c3cccc(CC(=O)O)c3[nH]c2c1C | > 100 µM | 93.4% |
| COc1ccc2[nH]c3c(C)c(C)ccc3c(=O)c2c1 | 13.7 µM | 98.8% |
| COc1cc2c(=O)c3cccc(CC(=O)O)c3[nH]c2c(C)c1C | 28 µM | 91.4% |
| Cc1ccc2c(=O)c3cc(F)cc(CC(=O)O)c3[nH]c2c1C | > 100 µM | 99% |
| COc1cc(CC(=O)O)c2[nH]c3c(C)c(C)c(OC)cc3c(=O)c2c1 | 11.4 µM | 86.7% |
| Cc1ccc2c(=O)c3c(Cl)ccc(CC(=O)O)c3[nH]c2c1C | > 100 µM | 87.7% |
| Cc1ccc2c(=O)c3c(F)ccc(CC(=O)O)c3[nH]c2c1C | > 100 µM | 103% |
| COc1cc2c(=O)c3c(Cl)ccc(CC(=O)O)c3[nH]c2c(C)c1C | – | 95.4% |
| COc1cc2c(=O)c3cc(F)cc(CC(=O)O)c3[nH]c2c(C)c1C | – | 106% |
| COc1cc2c(=O)c3cc(C)cc(C(=O)O)c3[nH]c2c(C)c1C | 5.95 µM | 98.4% |
| COc1cc2c(=O)c3c(F)ccc(CC(=O)O)c3[nH]c2c(C)c1C | – | 87.8% |
| COc1cc(C(=O)O)c2[nH]c3c(C)c(C)c(OC)cc3c(=O)c2c1 | – | 96.5% |
| CCOC(=O)Cn1c2ccccc2c(=O)c2cc(OC)c(C)c(C)c21 | – | 93.5% |
| COc1cc2c(=O)c3cc(Cl)cc(CC(=O)O)c3[nH]c2c(C)c1C | – | 82% |
| COc1cc2c(=O)c3cccc(C(=O)O)c3[nH]c2c(C)c1C | – | 92.1% |
| COc1cc(C(=O)O)c2[nH]c3c(C)c(C)ccc3c(=O)c2c1 | > 100 µM | 91.3% |
| Cc1ccc2c(=O)c3cc(Cl)cc(CC(=O)O)c3[nH]c2c1C | > 100 µM | 83.4% |

Now from value to compound, other results behind:

| IC50 [1] | Compound | viability at 100 µM (THP-1) |
| --- | --- | --- |
| > 100 µM | COc1ccc2c(c1)c(=O)c1ccc(C)c(C)c1n2CC(=O)O | 95.8% |
| 25.1 µM | COc1cc2c(=O)c3cc(C)ccc3n(CC(=O)O)c2c(C)c1C | 105% |
| 33.8 µM | COc1ccc2c(c1)c(=O)c1cc(OC)c(C)c(C)c1n2CC(=O)OCC(C)(C)C | 93.3% |
| > 100 µM | CCOC(=O)Cn1c2ccc(OC)cc2c(=O)c2ccc(C)c(C)c21 | 99.2% |
| 8.26 µM | COc1cc2c(=O)c3ccccc3n(CC(=O)O)c2c(C)c1C | 86.9% |
| 26 µM | CCOC(=O)Cn1c2ccc(OC)cc2c(=O)c2cc(OC)c(C)c(C)c21 | 102% |
| 11.1 µM | COc1ccc2c(c1)c(=O)c1cc(OC)c(C)c(C)c1n2CC(=O)O | 83.3% |
| 41.5 µM | COC(=O)Cn1c2ccc(C)cc2c(=O)c2cc(OC)c(C)c(C)c21 | 85.7% |
